# According to patent publication US20220144838A1, “Compounds as Inhibitors of Macrophage Migration Inhibitory Factor” (NANJING IMMUNOPHAGE BIOTECH CO., LTD., priority 2019, published 2022):
# Biological target: T1, MIF (Homo sapiens, UniProt P14174)
# T1 sequence (P14174 2-115 limits assumed): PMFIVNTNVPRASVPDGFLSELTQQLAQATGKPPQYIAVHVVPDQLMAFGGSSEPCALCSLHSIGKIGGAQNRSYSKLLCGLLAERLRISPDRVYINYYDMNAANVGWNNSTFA
# Assay: MIF tautomerase assay using pHPP as substrate
# Assay type: biochemical
# Conditions: inhibition of the MIF enzyme in vitro; mean of multiple test results; read-out: Tautomerase Inhibition pIC50 (converted)
# Procedure: Tautomerase Assay Using pHPP as Substrate
# This assay measured MIF's tautomerase activity in a cell-free system and was based on the determination of initial rates of the MIF-catalyzed conversion of the ketonic into the enolic tautomer of pHPP. This was achieved by spectrophotometric quantification of the complex between borate and the product of the reaction (enolic pHPP). The substrate was prepared by conversion of the enolic pHPP into its ketonic form. To achieve this, 0.5 M pHPP in methanol was diluted 10-fold with 50 mM sodium acetate buffer at pH 6.0, and then the suspension was shaken for 24 h at room temperature in darkness, and finally stored at 4° C. for not more than 1 week, with 5 min sonication being recommended before use.
# Assays were performed in small-volume clear-bottom black 96 or 384-well polystyrene plates (Greiner Bio-One). First, 2 μL of the enzyme solution containing 6 nM of MIF in DPBS, 0.025% w/v BSA, and 300 μM CHAPS was dispensed onto sample and negative control wells using Multidrop Combi with metallic tip cassettes (Thermo Fisher Scientific) previously treated with Sigmacote. Then, 2 μL of the same buffer without MIF was dispensed onto positive control wells. The reaction was started by addition of the following to all wells: 2 μL of substrate solution containing 3 mM ketonic pHPP in 200 mM boric acid, 25 mM sodium phosphate, 0.025% w/v BSA, and 300 μM CHAPS at pH 6.0. In order to remove bubbles, the plate was centrifuged in an Allegra 25R centrifuge (Beckman Coulter, Inc., Brea, Calif.) at 1000 rpm for 2 min at room temperature. Then, the plate was read in an EnVision. Final concentrations of enzyme and substrate were 3 nM and 1.5 mM, respectively. Initial rates were calculated for each well as the slope of the absorbance progress curve.
# All exemplified compounds (Examples 1-230) were tested in the MIF tautomerase assay or a similar assay described above. The data mentioned below represents a mean pIC50 value of multiple test results. It is understood that the data illustrated below may have reasonable variation depending on the specific conditions and procedures used by the person conducting the testing.
row,SMILES,IC50 [nM]
1,"Nc1ccc(N2CCN(c3nc(N)c4ncn(-c5ccncc5)c4n3)CC2)nc1 [Example 190, 2-(4-(5-aminopyridin-2-yl)piperazin-1-yl)-9-(pyridin-4-yl)-9H-purin-6-amine]",> 10000
2,"COC(=O)c1ccc(-n2cnc3c(N)nc(N4CCN(c5ccc(O)cc5)CC4)nc32)cc1 [Example 101, methyl 4-(6-amino-2-(4-(4-hydroxyphenyl)piperazin-1-yl)-9H-purin-9-yl)benzoate]",100 to 977
3,"CN(CC(=O)O)c1nc(N2CCN(c3ccc(O)cc3)CC2)nc2c1ncn2-c1ccncc1 [Example 166, 3N-(2-(4-(4-hydroxyphenyl)piperazin-1-yl)-9-(pyridin-4-yl)-9H-purin-6-yl)-N-methylglycine]",10 to 97.7
4,"O=C(O)Cn1cnc2c(-n3nnc4cccnc43)nc(N3CCN(c4ccc(O)cc4)CC3)nc21 [Example 120, 2-(6-(3H-[1,2,3]triazolo[4,5-b]pyridin-3-yl)-2-(4-(4-hydroxyphenyl)piperazin-1-yl)-9H-purin-9-yl)acetic acid]",10 to 97.7
5,"Nc1nc(N2CCN(c3ccc(O)cc3)CC2)nc2c1ncn2C1CCCCO1 (stereo not drawn) [Example 187, 4-(4-(6-amino-9-(tetrahydro-2H-pyran-2-yl)-9H-purin-2-yl)piperazin-1-yl)phenol]",> 10000
6,"OCCCNc1nc(N2CCN(c3ccc(O)cc3)CC2)nc2c1ncn2-c1cccnc1 [Example 113, 4-(4-(6-((3-hydroxypropyl)amino)-9-(pyridin-3-yl)-9H-purin-2-yl)piperazin-1-yl)phenol]",100 to 977
7,"Nc1nc(N2CCN(c3ccc(O)cc3)CC2)nc2c1ncn2-c1cccc(O)c1 [Example 77, 3-(6-amino-2-(4-(4-hydroxyphenyl)piperazin-1-yl)-9H-purin-9-yl)phenol]",1000 to 9770
8,"Cc1nc(N2CCN(c3ccc(O)cc3)CC2)nc2c1ncn2-c1ccccc1 [Example 43, 4-(4-(6-methyl-9-phenyl-9H-purin-2-yl)piperazin-1-yl)phenol]",100 to 977
9,"O=C(O)C1CCCN(c2nc(N3CCN(c4ccc(O)cc4)CC3)nc3c2ncn3-c2ccncc2)C1 (stereo not drawn) [Example 170, 1-(2-(4-(4-hydroxyphenyl)piperazin-1-yl)-9-(pyridin-4-yl)-9H-purin-6-yl)piperidine-3-carboxylic acid]",10 to 97.7
10,"Nc1nc(N2CCN(c3ccc(O)cc3)CC2)nc2c1ncn2-c1ccc(C(=O)O)cc1 [Example 102, 4-(6-amino-2-(4-(4-hydroxyphenyl)piperazin-1-yl) 9H-purin-9-yl)benzoic acid]",1000 to 9770
11,"N#Cc1ccc(-n2cnc3c(N)nc(N4CCN(c5ccc(O)cc5)CC4)nc32)cn1 [Example 86, 5-(6-amino-2-(4-(4-hydroxyphenyl)piperazin-1-yl)-9H-purin-9-yl)picolinonitrile]",100 to 977
12,"O=C1CN(c2nc(N3CCN(c4ccc(O)cc4)CC3)nc3c2ncn3-c2ccncc2)CCN1 [Example 174, 4-(2-(4-(4-hydroxyphenyl)piperazin-1-yl)-9-(pyridin-4-yl)-9H-purin-6-yl)piperazin-2-one]",10 to 97.7

# The remaining lines, values ahead:
row,IC50 [nM],SMILES
1,10 to 97.7,"O=C(O)Cn1cnc2c(-n3nnc4ccncc43)nc(N3CCN(c4ccc(O)cc4)CC3)nc21 [Example 121, 2-(6-(3H-[1,2,3]triazolo[4,5-c]pyridin-3-yl)-2-(4-(4-hydroxyphenyl)piperazin-1-yl)-9H-purin-9-yl)acetic acid]"
2,100 to 977,"O=C(O)Cn1cnc2c(-n3ncc4ccccc43)nc(N3CC(O)(c4ccccc4)C3)nc21 [Example 221, 2-(2-(3-hydroxy-3-phenylazetidin-1-yl)-6-(1H-indazol-1-yl)-9H-purin-9-yl)acetic acid]"
3,100 to 977,"O=C1Cc2ccccc2N1c1nc(N2CCN(c3ccc(O)cc3)CC2)nc2c1ncn2CCO [Example 2, 1-(9-(2-hydroxyethyl)-2-(4-(4-hydroxyphenyl)piperazin-1-yl)-9H-purin-6-yl)indolin-2-one]"
4,10 to 97.7,"O=C(O)Cn1cnc2c(-n3ncc4c(O)cccc43)nc(N3CCN(c4ccc(O)cc4)CC3)nc21 [Example 108, 2-(6-(4-hydroxy-1H-indazol-1-yl)-2-(4-(4-hydroxyphenyl)piperazin-1-yl)-9H-purin-9-yl)acetic acid]"
5,10 to 97.7,"Cc1cccc2c1nnn2-c1nc(N2CCN(c3ccc(O)cc3)CC2)nc2c1ncn2CC(=O)O [Example 20, 2-(2-(4-(4-hydroxyphenyl)piperazin-1-yl)-6-(4-methyl-1H-benzo[d][1,2,3]triazol-1-yl)-9H-purin-9-yl)acetic acid]"
6,10 to 97.7,"O=C(O)CCCn1cnc2c(-n3ncc4ccccc43)nc(N3CCN(c4ccc(O)cc4)CC3)nc21 [Example 146, 4-(2-(4-(4-hydroxyphenyl)piperazin-1-yl)-6-(1H-indazol-1-yl)-9H-purin-9-yl)butanoic acid]"
7,100 to 977,"O=C(O)Cn1cnc2c(-n3ncc4ccc(CO)cc43)nc(N3CCN(c4ccc(O)cc4)CC3)nc21 [Example 105, 2-(6-(6-(hydroxymethyl)-1H-indazol-1-yl)-2-(4-(4-hydroxyphenyl)piperazin-1-yl)-9H-purin-9-yl)acetic acid]"
8,> 10000,"Cc1nc(N2CCC(O)(c3ccc(O)cc3)CC2)nc2c1ncn2CC(=O)O [Example 215, 2-(2-(4-hydroxy-4-(4-hydroxyphenyl)piperidin-1-yl)-6-methyl-9H-purin-9-yl)acetic acid]"
9,10 to 97.7,"O=C(O)Cn1cnc2c(-n3ncc4ccccc43)nc(N3CCN(c4ccc(O)cn4)CC3)nc21 [Example 21, 2-(2-(4-(5-hydroxypyridin-2-yl)piperazin-1-yl)-6-(1H-indazol-1-yl)-9H-purin-9-yl)acetic acid]"
10,10 to 97.7,"OCCn1cnc2c(-n3nc(CO)c4ccccc43)nc(N3CCN(c4ccc(O)cc4)CC3)nc21 [Example 152, 4-(4-(9-(2-hydroxyethyl)-6-(3-(hydroxymethyl)-1H-indazol-1-yl)-9H-purin-2-yl)piperazin-1-yl)phenol]"
11,1000 to 9770,"Oc1ccc(C2(O)CCN(c3nc(N4CCCCC4)c4ncn(-c5ccncc5)c4n3)CC2)cc1 [Example 211, 1 4-(4-hydroxyphenyl)-1-(6-(piperidin-1-yl)-9-(pyridin-4-yl)-9H-purin-2-yl)piperidin-4-ol]"
12,> 10000,"O=C(O)Cn1cnc2c(-n3ncc4ccccc43)nc(N3CCC(O)(c4ccccc4)C3)nc21 (stereo not drawn) [Example 161, 2-(2-(3-hydroxy-3-phenylpyrrolidin-1-yl)-6-(1H-indazol-1-yl)-9H-purin-9-yl)acetic acid]"
13,10 to 97.7,"O=C(O)C(CC1CC1)n1cnc2c(-n3ncc4ccccc43)nc(N3CCN(c4ccc(O)cn4)CC3)nc21 (stereo not drawn) [Example 151, 3-cyclopropyl-2-(2-(4-(5-hydroxypyridin-2-yl)piperazin-1-yl)-6-(1H-indazol-1-yl)-9H-purin-9-yl)propanoic acid]"
14,10 to 97.7,"O=C(O)CCCCn1cnc2c(-n3ncc4ccccc43)nc(N3CCC(O)(c4ccc(O)cc4)CC3)nc21 [Example 217, 5-(2-(4-hydroxy-4-(4-hydroxyphenyl)piperidin-1-yl)-6-(1H-indazol-1-yl)-9H-purin-9-yl)pentanoic acid]"
15,100 to 977,"O=C(O)Cn1cnc2c(-n3nc(-c4cccnc4)c4ccccc43)nc(N3CCN(c4ccc(O)cc4)CC3)nc21 [Example 36, 2-(2-(4-(4-hydroxyphenyl)piperazin-1-yl)-6-(3-(pyridin-3-yl)-1H-indazol-1-yl)-9H-purin-9-yl)acetic acid]"
